Laboratory results taken from article PMC8061941 (PLoS ONE, 2021).
Entries after “also recorded” stand apart in the source; their conditions may differ. Square brackets hold non-standard residues; d marks the D form. Ends that are not written are not given here. Peptide text beside a SMILES is read from it.

Tests used:
[1] = Mass spectrometry analysis of Ringers solution from Ussing chambers during ex vivo recovery (degradation and fragment formation); type: in vitro ADME, pig; settings: for half-life: pig, tissue, pH 7.4, Ussing chamber Ringers solution, ex vivo recovery 240 minutes, LC-MS/MS, n = 4, read-out: Half-life in ischemic injured jejunum tissue; for Fragment detected in Ringers solution during ex vivo recovery: Ussing chambers with ischemia-injured jejunum in presence of parent peptide (LA or A6), MS analysis, N = 4
Text: After 45-minutes of ischemia, the pigs were euthanized, and intestinal segments were collected. Non-ischemic control tissue was also collected at this time. Following tissue collection, the seromuscular layer was stripped from the mucosa while the tissue was bathed in oxygenated (95% O2, 5% CO2) Ringer’s solution (in mmol/L: 154 Na^+, 6.3 K^+, 137 Cl^-, and 24 HCO3^-; pH 7.4). The mucosa was subsequently mounted in 1.1-cm^2 aperture Ussing chambers, as described in previous studies. Tissues were bathed on both the mucosal and serosal sides with 10mL Ringer’s solution. The mucosal bathing solution contained 10mM mannitol while the serosal side was osmotically balanced with 10mM glucose. Bathing solutions were oxygenated (95% O2, 5% CO2) and circulated in water-jacketed reservoirs. The spontaneous potential difference (PD) was measured using Ringer-agar bridges connected to calomel electrodes, and the PD was short-circuited through Ag-AgCl electrodes using a voltage clamp that was corrected for fluid resistance. TER (Ω·cm^2) was calculated from the spontaneous PD and short-circuit current (Isc). If the spontaneous PD was between -1.0 and 1.0 mV, tissues were current clamped at ± 100 μA for 5-seconds, and the PD was recorded. Isc and PD were recorded at 15-minute intervals over a 4-hour experiment. After tissues were mounted on Ussing chambers, all tissues were allowed to acclimate for a period of 30-minutes to establish stable baseline measurements, after which experimental, single-dose treatments of LA, LA fragments (F1, F2, or F3) with or without LA, A6, or A6 with or without A6 fragments (A6F1 or A6F2) were added to the apical chamber. For the microdosing regimen of LA, multiple doses at various concentrations of LA were added initially after the 30-minute acclimation period and every 45-minutes following this initial dose. Tissues were monitored by measuring transepithelial resistance (TER) for 240 minutes. Samples of Ringers solution were collected at select timepoints and quenched with 5% trifluoroacetic acid (TFA) solution (in 80% acetonitrile (ACN): 20% DI water). […] Standardization of ischemic injury severity between intestinal loops was standardized using a similar method as previously described in another intestinal mucosal injury model. First, T = 0 TER values from separate studies utilizing juvenile porcine intestinal ischemic tissue across three years were averaged (24 Ω·cm^2), and the standard deviation of this dataset was calculated (11 Ω·cm^2). Tissues with a T = 0 TER value exceeding one standard deviation of the mean (i.e., < 13 or > 35 Ω·cm^2) were excluded from experiments and data analysis.

aminopeptidase M = molecular target: T1, aminopeptidase M (Sus scrofa, UniProt P15145); settings: LA 0.2 mg/mL in SIF without pancreatin pH 6.5, 10 μM MgCl2, AM 0.66 unit/mL (porcine kidney), 37°C; UPLC-MS/MS; two separate runs
T1 sequence (P15145 1-963): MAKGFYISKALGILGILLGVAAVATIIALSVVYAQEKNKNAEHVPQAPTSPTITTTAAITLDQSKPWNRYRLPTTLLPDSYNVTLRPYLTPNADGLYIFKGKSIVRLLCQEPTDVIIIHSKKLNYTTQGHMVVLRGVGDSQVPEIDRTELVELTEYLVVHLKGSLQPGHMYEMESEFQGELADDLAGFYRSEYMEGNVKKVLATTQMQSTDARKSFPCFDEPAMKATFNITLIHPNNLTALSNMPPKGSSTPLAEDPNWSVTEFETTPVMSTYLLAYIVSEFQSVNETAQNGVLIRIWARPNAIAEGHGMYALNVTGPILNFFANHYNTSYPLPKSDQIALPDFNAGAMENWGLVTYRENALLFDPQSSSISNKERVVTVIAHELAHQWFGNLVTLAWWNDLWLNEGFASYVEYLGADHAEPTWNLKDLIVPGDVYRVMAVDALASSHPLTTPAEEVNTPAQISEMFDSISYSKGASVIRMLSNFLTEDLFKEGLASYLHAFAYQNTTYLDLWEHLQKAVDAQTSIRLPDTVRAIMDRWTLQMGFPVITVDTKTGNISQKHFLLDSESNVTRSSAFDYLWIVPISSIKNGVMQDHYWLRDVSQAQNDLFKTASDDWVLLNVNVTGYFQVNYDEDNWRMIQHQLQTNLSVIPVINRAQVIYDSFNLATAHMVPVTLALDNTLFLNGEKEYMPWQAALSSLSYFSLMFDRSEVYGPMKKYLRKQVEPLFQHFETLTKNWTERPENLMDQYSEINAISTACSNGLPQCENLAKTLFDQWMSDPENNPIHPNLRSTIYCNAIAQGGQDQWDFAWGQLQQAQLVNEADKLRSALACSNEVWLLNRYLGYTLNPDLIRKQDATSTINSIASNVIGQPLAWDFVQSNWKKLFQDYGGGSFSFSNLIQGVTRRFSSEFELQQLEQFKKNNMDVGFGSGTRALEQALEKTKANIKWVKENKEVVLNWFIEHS
Description: Aminopeptidase M (AM) degradation of LA in vitro was carried out as follows. LA solution (0.2 mg/mL) in simulated intestinal fluid (SIF) (without Pancreatin), USP XXII Formulation: Ricca Chemical) pH 6.5 containing MgCl2 (10 μM; catalyst support) was combined with AM (porcine kidney: Sigma) solution (final AM concentration is 0.66 unit/mL) in a vial. The combined mixture was incubated at 37°C in a shaker water bath, and samples for UPLC-MS analysis were collected at various timepoints quenched with 5% TFA solution (in 80% ACN: 20% DI water). Quenched samples were centrifuged at 13000xg for 5-minutes and the resulting supernatants were stored at -80°C for future MS analysis.
A simple and sensitive liquid chromatography/tandem mass spectrometric (LC-MS/MS) method was developed for the identification and quantification of LA and its digestive fragments in the enzyme digest solution and other matrices. Samples were prepared with simple ACN and TFA in water quenching of the enzyme activity and precipitation of protein(s). The supernatant was then diluted appropriately and analyzed directly using the UPLC-MS/MS method Chromatographic separations were achieved on a C18 reversed phase column using an ACN and TFA-water gradient. The detection was performed in MS/MS mode via positive electrospray ionization (ESI+) interface.
A Waters Quattro Xevo TOD mass spectrometer equipped with an electrospray ionization source and a Waters Acquity™ UPLC BEH system (Waters, Milford, MA, USA) with a binary solvent and a sample manager was used in this study. The LC column (Waters, C18, 50×2.1 mm, 1.7 μm) was operated at 35°C and the autosampler was operated at ambient temperature. A binary mobile phase (mobile phase A and mobile phase B) with a linear solvent gradient system was used for the chromatographic separations of larazotide and its digestive fragments. Mobile phase A, 0.02% TFA in water and mobile phase B, 0.02% TFA in ACN. The UPLC-MS/MS method was qualified for the determination and identification of larazotide and the larazotide digestive fragments in the enzyme digest solution.

Aminopeptidase M (AM) = experiment: AM (porcine kidney: Sigma) in simulated intestinal fluid (SIF) (without Pancreatin) pH 6.5 containing MgCl2 (10 μM); settings: 37°C, up to 180 minutes
[2] = Ringers solution bathing ischemia-injured porcine jejunal mucosa mounted in Ussing chambers (ex vivo recovery); settings: Yorkshire crossbred pigs, up to 240 minutes

Row | Compound | Degradation by aminopeptidase M and presence of fragments (aminopeptidase M) | Fragment detected in Ringers solution during ex vivo recovery [1] | other results
1 | GGVLVQPG [LA, Larazotide acetate] | fragmented throughout the entirety of the experiment | – | half-life [1]: 35 min
2 | VLVQPG [F2] | not being detected after 90 minutes | are formed | –
3 | GGVLVQP [F3] | – | highest concentration out of all four fragments | –
4 | H-GGVLVQPG-OH | – | – | cleaved bond (Aminopeptidase M (AM)): Gly-Val; cleaved bond [2]: Gly-Val; also recorded: Pro-Gly, major
5 | GVLVQPG [F1] | found in all samples collected during the run | are formed | –
6 | CC(C)C[C@@H](NC(=O)[C@H](NC(=O)CNC(=O)CN)C(C)C)C(=O)N[C@@H](C(=O)N[C@H](CCC(N)=O)C(=O)N1CCC[C@@H]1C(=O)NCC(=O)O)C(C)C [A6] (H-GG[dV][dL][dV][dQ][dP]G-OH) | – | – | Stability to brush-border enzyme degradation compared with LA ([1]; ex vivo stability data, Ussing chamber): significantly more stable; half-life [1]: 78 min
7 | VLVQP [F4] | – | detected | –
8 | CC(C)C[C@@H](NC(=O)[C@H](N)C(C)C)C(=O)N[C@@H](C(=O)N[C@H](CCC(N)=O)C(=O)N1CCC[C@@H]1C(=O)NCC(=O)O)C(C)C [A6F2] (H-[dV][dL][dV][dQ][dP]G-OH) | – | formation | –
9 | CC(C)C[C@@H](NC(=O)[C@H](NC(=O)CN)C(C)C)C(=O)N[C@@H](C(=O)N[C@H](CCC(N)=O)C(=O)N1CCC[C@@H]1C(=O)NCC(=O)O)C(C)C [A6F1] (H-G[dV][dL][dV][dQ][dP]G-OH) | – | predominant fragment formed | –
10 | CC(C)C[C@@H](NC(=O)[C@H](N)C(C)C)C(=O)N[C@@H](C(=O)N[C@H](CCC(N)=O)C(=O)N1CCC[C@@H]1C(=O)O)C(C)C [A6F4] (H-[dV][dL][dV][dQ][dP]-OH) | – | formation | –
